Laboratory results published in PubChem BioAssay AID2060907 (Molecular Pharmacology Branch, DTP, NCI, 2025).

System: 388556-164-R-J1-PDC complex spheroid viability
Assay: Anticancer human tumor 388556-164-R-J1-PDC patient-derived colon adenocarcinoma cell line growth inhibition [RAS]
Conditions: for IC50: curve of first compound; for viability, T/C: stronger effect = lower value
Procedure, shortened: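 Agents were tested in combination matrices in half-log decrements from a top concentration at or near clinical Cmax (10 microM if undetermined). Targets were multi-cell spheroids of tumour lines plus HUVEC and MSC stromal cells.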
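Further: spheroids exposed to compound for 7 days before readout.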
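Wherever viability, T/C is given: 100% = DMSO vehicle control luminescence.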

## CCc1c2c(nc3ccc(O)cc13)-c1cc3c(c(=O)n1C2)COC(=O)[C@]3(O)CC + CCn1c(-c2cc(N3CCN(C)CC3)cnc2C(C)OC)c2c3cc(ccc31)-c1csc(n1)CC(NC(=O)C1CC1C)C(=O)N1CCCC(N1)C(=O)OCC(C)(C)C2
Second compound 0.000949 µM
  IC50: 46.6 nM
Second compound 0.003 µM
  IC50: 28.1 nM
Second compound 0.00949 µM
  IC50: 19.6 nM
Second compound 0.03 µM
  IC50: 7.33 nM
Second compound 0.0949 µM
  IC50: < 0.949 nM
Second compound 0.3 µM
  IC50: < 0.949 nM
Second compound 0.000949 µM, first compound 0.000949 µM
  viability, T/C: 90.3%
Second compound 0.000949 µM, first compound 0.003 µM
  viability, T/C: 89.5%
Second compound 0.000949 µM, first compound 0.00949 µM
  viability, T/C: 66.3%
Second compound 0.000949 µM, first compound 0.03 µM
  viability, T/C: 56%
Second compound 0.000949 µM, first compound 0.0949 µM
  viability, T/C: 42.1%
Second compound 0.000949 µM, first compound 0.3 µM
  viability, T/C: 23.5%
Second compound 0.003 µM, first compound 0.000949 µM
  viability, T/C: 89.9%
Second compound 0.003 µM, first compound 0.003 µM
  viability, T/C: 83.6%
Second compound 0.003 µM, first compound 0.00949 µM
  viability, T/C: 67.5%
Second compound 0.003 µM, first compound 0.03 µM
  viability, T/C: 46.3%
Second compound 0.003 µM, first compound 0.0949 µM
  viability, T/C: 36.4%
Second compound 0.003 µM, first compound 0.3 µM
  viability, T/C: 21.8%
Second compound 0.00949 µM, first compound 0.000949 µM
  viability, T/C: 82.2%
Second compound 0.00949 µM, first compound 0.003 µM
  viability, T/C: 78.4%
Second compound 0.00949 µM, first compound 0.00949 µM
  viability, T/C: 55.7%
Second compound 0.00949 µM, first compound 0.03 µM
  viability, T/C: 41.8%
Second compound 0.00949 µM, first compound 0.0949 µM
  viability, T/C: 36.5%
Second compound 0.00949 µM, first compound 0.3 µM
  viability, T/C: 18.7%
Second compound 0.03 µM, first compound 0.000949 µM
  viability, T/C: 58.2%
Second compound 0.03 µM, first compound 0.003 µM
  viability, T/C: 55.5%
Second compound 0.03 µM, first compound 0.00949 µM
  viability, T/C: 50.5%
Second compound 0.03 µM, first compound 0.03 µM
  viability, T/C: 37.8%
Second compound 0.03 µM, first compound 0.0949 µM
  viability, T/C: 30.2%
Second compound 0.03 µM, first compound 0.3 µM
  viability, T/C: 16.6%
Second compound 0.0949 µM, first compound 0.000949 µM
  viability, T/C: 44.3%
Second compound 0.0949 µM, first compound 0.003 µM
  viability, T/C: 39.1%
Second compound 0.0949 µM, first compound 0.00949 µM
  viability, T/C: 48.9%
Second compound 0.0949 µM, first compound 0.03 µM
  viability, T/C: 30.1%
Second compound 0.0949 µM, first compound 0.0949 µM
  viability, T/C: 25.9%
Second compound 0.0949 µM, first compound 0.3 µM
  viability, T/C: 14.3%
Second compound 0.3 µM, first compound 0.000949 µM
  viability, T/C: 32.4%
Second compound 0.3 µM, first compound 0.003 µM
  viability, T/C: 31.5%
Second compound 0.3 µM, first compound 0.00949 µM
  viability, T/C: 28.2%
Second compound 0.3 µM, first compound 0.03 µM
  viability, T/C: 30.1%
Second compound 0.3 µM, first compound 0.0949 µM
  viability, T/C: 21.2%
Second compound 0.3 µM, first compound 0.3 µM
  viability, T/C: 11.5%

## CC(=O)OC12COC1CC(O)C1(C)C(=O)C(O)C3=C(C)C(OC(=O)C(O)C(NC(=O)OC(C)(C)C)c4ccccc4)CC(O)(C(OC(=O)c4ccccc4)C21)C3(C)C (centres undefined) + CCn1c(-c2cc(N3CCN(C)CC3)cnc2C(C)OC)c2c3cc(ccc31)-c1csc(n1)CC(NC(=O)C1CC1C)C(=O)N1CCCC(N1)C(=O)OCC(C)(C)C2
Second compound 0.000949 µM
  IC50: > 10000 nM
Second compound 0.003 µM
  IC50: > 10000 nM
Second compound 0.00949 µM
  IC50: 510 nM
Second compound 0.03 µM
  IC50: < 31.6 nM
Second compound 0.0949 µM
  IC50: < 31.6 nM
Second compound 0.3 µM
  IC50: < 31.6 nM
Second compound 0.000949 µM, first compound 0.0316 µM
  viability, T/C: 77.2%
Second compound 0.000949 µM, first compound 0.1 µM
  viability, T/C: 63.2%
Second compound 0.000949 µM, first compound 0.316 µM
  viability, T/C: 63.7%
Second compound 0.000949 µM, first compound 1 µM
  viability, T/C: 66.1%
Second compound 0.000949 µM, first compound 3.16 µM
  viability, T/C: 69.2%
Second compound 0.000949 µM, first compound 10 µM
  viability, T/C: 59.6%
Second compound 0.003 µM, first compound 0.0316 µM
  viability, T/C: 76.4%
Second compound 0.003 µM, first compound 0.1 µM
  viability, T/C: 61.6%
Second compound 0.003 µM, first compound 0.316 µM
  viability, T/C: 54%
Second compound 0.003 µM, first compound 1 µM
  viability, T/C: 59.1%
Second compound 0.003 µM, first compound 3.16 µM
  viability, T/C: 55.1%
Second compound 0.003 µM, first compound 10 µM
  viability, T/C: 50.4%
Second compound 0.00949 µM, first compound 0.0316 µM
  viability, T/C: 65.3%
Second compound 0.00949 µM, first compound 0.1 µM
  viability, T/C: 57.1%
Second compound 0.00949 µM, first compound 0.316 µM
  viability, T/C: 52.8%
Second compound 0.00949 µM, first compound 1 µM
  viability, T/C: 43.9%
Second compound 0.00949 µM, first compound 3.16 µM
  viability, T/C: 50.4%
Second compound 0.00949 µM, first compound 10 µM
  viability, T/C: 41.2%
Second compound 0.03 µM, first compound 0.0316 µM
  viability, T/C: 46.9%
Second compound 0.03 µM, first compound 0.1 µM
  viability, T/C: 42.3%
Second compound 0.03 µM, first compound 0.316 µM
  viability, T/C: 40.1%
Second compound 0.03 µM, first compound 1 µM
  viability, T/C: 44.1%
Second compound 0.03 µM, first compound 3.16 µM
  viability, T/C: 41.2%
Second compound 0.03 µM, first compound 10 µM
  viability, T/C: 32%
Second compound 0.0949 µM, first compound 0.0316 µM
  viability, T/C: 44.1%
Second compound 0.0949 µM, first compound 0.1 µM
  viability, T/C: 34.9%
Second compound 0.0949 µM, first compound 0.316 µM
  viability, T/C: 34.9%
Second compound 0.0949 µM, first compound 1 µM
  viability, T/C: 32.4%
Second compound 0.0949 µM, first compound 3.16 µM
  viability, T/C: 31.1%
Second compound 0.0949 µM, first compound 10 µM
  viability, T/C: 25.4%
Second compound 0.3 µM, first compound 0.0316 µM
  viability, T/C: 27.4%
Second compound 0.3 µM, first compound 0.1 µM
  viability, T/C: 27.9%
Second compound 0.3 µM, first compound 0.316 µM
  viability, T/C: 28%
Second compound 0.3 µM, first compound 1 µM
  viability, T/C: 30.1%
Second compound 0.3 µM, first compound 3.16 µM
  viability, T/C: 27.8%
Second compound 0.3 µM, first compound 10 µM
  viability, T/C: 24.4%
